Key:
[1] = tested on: MKN45 gastric cancer cell line; assay: Cell viability, CellTiter Glo, combination with L3-1Y/IgG2 antibody; format: cell-based; settings: ABT-263 5 uM co-treated with L3-1Y/IgG2 0.08 ug/ml, 72 h
[2] = tested on: MKN45 gastric cancer cell line with acquired resistance against L3-1Y/IgG2 antibody; assay: Cell viability, CellTiter Glo, resistance-acquired cell line; format: cell-based; settings: 72 h
Description: To see whether the treatment RAF1 siRNA can overcome resistance acquired due to the repetitive treatment of an antibody, tests were carried out using MKN45 gastric cancer cell line which had been treated by L3-1Y/IgG2 antibody for 3 months or longer and acquired resistance against it. The resistance-acquired MKN45 gastric cancer cell line was prepared as follows: MKN45 cells (JCRB, JCRB0254) were treated with L3-1Y/IgG2 antibody in amounts being increased over 3 months or longer. The amount of L3-1Y/IgG2 antibody to be treated started from its initial treatment concentration of 1 ug/ml and was increased up to 10 ug/ml until resistance occurred. To confirm the acquisition of L3-1Y/IgG2 antibody resistance, the resistance-acquired clones were treated or not treated with L3-1Y/IgG2 antibody and then incubated, followed by CTG assays.
As a control group, All Negative control siRNA (Qiagen, cat. no. 1027281) was used, and as a target siRNA, a mixture of two kinds of siRNAs (see Table 7) that had effects during the screening was used. […]
(§1) 5000 cells of MKN45 cells which have acquired resistance against L3-1Y/IgG2 antibody were seeded onto a 96-well plate, and 24 hours after, the plate was treated with L3-1Y/IgG2 antibody and an ITGB3 inhibitor, cilengitide (Merck KGaA, EMD 121974). 72 hours later after the treatment, a change in the number of cells was measured using CellTiter Glo assay. The MKN45 cells which have acquired resistance against L3-1Y/IgG2 antibody were prepared referring to Example 4.3. Cilengitide was treated at a fixed concentration of 10 uM, and the L3-1Y/IgG2 antibody was treated by ⅕ dilution each time starting from 2 ug/ml. For comparison, the same test was conducted using L3-1Y/IgG2 antibody alone.
as §1, with “AKT” for “ITGB3”, “MK-2206” for “cilengitide”, “& Co Inc).” for “KGaA, EMD 121974).”, “MK-2206” for “Cilengitide”, “5” for “10”
To verify whether or not the resistance acquired by repetitive administration of anti-c-Met antibody can be overcome by BCL2L1 inhibition, L3-1Y/IgG2 antibody resistance acquired MKN45 cells, where the resistance against L3-1Y/IgG2 antibody is acquired by treating MKN45 gastric cancer cells (JCRB, JCRB0254) with the L3-1Y/IgG2 antibody for at least 3 months, were used. The L3-1Y/IgG2 antibody resistance acquired MKN45 gastric cancer cells were prepared referring to Example 4.3. […]

[3] = tested on: L3-1Y/IgG2 antibody resistance acquired EBC1 lung cancer cells; assay: as above; format: cell-based; settings: ABT-263 0.5 uM co-treated with L3-1Y/IgG2 (1/5 dilutions from 2 ug/ml), 72 h
Description: To verify whether or not the resistance acquired by repetitive administration of anti-c-Met antibody can be overcome by BCL2L1 inhibition, L3-1Y/IgG2 antibody resistance acquired EBC1 cells, where the resistance against L3-1Y/IgG2 antibody is acquired by treating EBC1 lung cancer cells (JCRB, JCRB0820) with the L3-1Y/IgG2 antibody for at least 3 months, were used. The L3-1Y/IgG2 antibody resistance acquired EBC1 lung cancer cells were prepared referring to Example 4.3.
5000 cells of the L3-1Y/IgG2 antibody resistance acquired EBC1 cells were seeded onto a 96-well plate and 24 hours after, the plate was treated with a BCL2 family inhibitor, ABT-263 (Abbott Laboratories) and 72 hours later after the antibody treatment, a change in the number of cells was measured using CellTiter Glo assay. ABT-263 was treated at a fixed concentration of 0.5 uM, and the L3-1Y/IgG2 antibody was treated by ⅕ dilution each time starting from 2 ug/ml.

[4] = tested on: HCC1806 breast cancer cells; assay: Cell viability, CellTiter Glo, combination with L3-1Y/IgG2 antibody; format: cell-based; settings: 72 h
Description: The efficacy of the combination administration of ITGB3 siRNA and L3-1Y/IgG2 antibody was examined in a breast cancer cell line on which the anti-c-Met antibody alone has no effects. For this, HCC1806 (ATCC, CRL-2335) and HCC1954 (ATCC, CRL-2338) cells were used.
As a control group, All Negative control siRNA (Qiagen, cat. no. 1027281) was used, and as a target siRNA, a mixture of two kinds of siRNAs (see Table 7) that had effects during the screening was used. Transfection was carried out by the same procedures as Example 3.1 and after 24 hours, the cultured cells were treated with L3-1Y/IgG2 antibody at 0 ug/ml, 0.016 ug/ml, 0.08 ug/ml, 0.4 ug/ml, or 2 ug/ml. 72 hours later after the treatment, 100 uL of CellTiter Glo solution (Promega, G7572) was added to each well, which was allowed to stay at a room temperature for 30 min. The number of cells was counted via luminescence signals, which were recorded using Envision 2104 Multi-label Reader (Perkin Elmer).
To verify the effect of the combination therapy using ITGB3 inhibitor and anti-c-Met antibody in breast cancer cells on which the anti-c-Met antibody has no effects, HCC1806 (ATCC, CRL-2335) cells were used. The HCC 1806 cells are a cell line known to have high amounts of c-Met.
as §1, with “HCC1806” for “MKN45”, “cells” for “cells which have acquired resistance against L3-1Y/IgG2 antibody”, “assay.” for “assay. The MKN45 cells which have acquired resistance against L3-1Y/IgG2 antibody were prepared referring to Example 4.3.”
The efficacy of combination administration was examined in a breast cancer cell line on which the anti-c-Met antibody has no effects. For this, HCC1806 (ATCC, CRL-2335) cells were used.
5000 HCC1806 cells were seeded onto a 96-well plate and 24 hours after, the plate was treated with L3-1Y/IgG2 antibody and an AKT inhibitor, MK-2206 (Merck & Co Inc) and 72 hours later after the antibody treatment, a change in the number of cells was measured using CellTiter Glo assay. MK-2206 was treated at a fixed concentration of 10 uM, and the L3-1Y/IgG2 antibody was treated by ⅕ dilution each time starting from 2 ug/ml. For comparison, the same test was conducted using L3-1Y/IgG2 antibody alone.

c-Met = c-Met (Homo sapiens, UniProt P08581); assay: Affinity / specificity for c-Met; format: binding; settings: expressed scFv
[5] = cilengitide 10 uM co-treated with L3-1Y/IgG2 (1/5 dilutions from 2 ug/ml)

Sequence of c-Met (P08581 25-1390): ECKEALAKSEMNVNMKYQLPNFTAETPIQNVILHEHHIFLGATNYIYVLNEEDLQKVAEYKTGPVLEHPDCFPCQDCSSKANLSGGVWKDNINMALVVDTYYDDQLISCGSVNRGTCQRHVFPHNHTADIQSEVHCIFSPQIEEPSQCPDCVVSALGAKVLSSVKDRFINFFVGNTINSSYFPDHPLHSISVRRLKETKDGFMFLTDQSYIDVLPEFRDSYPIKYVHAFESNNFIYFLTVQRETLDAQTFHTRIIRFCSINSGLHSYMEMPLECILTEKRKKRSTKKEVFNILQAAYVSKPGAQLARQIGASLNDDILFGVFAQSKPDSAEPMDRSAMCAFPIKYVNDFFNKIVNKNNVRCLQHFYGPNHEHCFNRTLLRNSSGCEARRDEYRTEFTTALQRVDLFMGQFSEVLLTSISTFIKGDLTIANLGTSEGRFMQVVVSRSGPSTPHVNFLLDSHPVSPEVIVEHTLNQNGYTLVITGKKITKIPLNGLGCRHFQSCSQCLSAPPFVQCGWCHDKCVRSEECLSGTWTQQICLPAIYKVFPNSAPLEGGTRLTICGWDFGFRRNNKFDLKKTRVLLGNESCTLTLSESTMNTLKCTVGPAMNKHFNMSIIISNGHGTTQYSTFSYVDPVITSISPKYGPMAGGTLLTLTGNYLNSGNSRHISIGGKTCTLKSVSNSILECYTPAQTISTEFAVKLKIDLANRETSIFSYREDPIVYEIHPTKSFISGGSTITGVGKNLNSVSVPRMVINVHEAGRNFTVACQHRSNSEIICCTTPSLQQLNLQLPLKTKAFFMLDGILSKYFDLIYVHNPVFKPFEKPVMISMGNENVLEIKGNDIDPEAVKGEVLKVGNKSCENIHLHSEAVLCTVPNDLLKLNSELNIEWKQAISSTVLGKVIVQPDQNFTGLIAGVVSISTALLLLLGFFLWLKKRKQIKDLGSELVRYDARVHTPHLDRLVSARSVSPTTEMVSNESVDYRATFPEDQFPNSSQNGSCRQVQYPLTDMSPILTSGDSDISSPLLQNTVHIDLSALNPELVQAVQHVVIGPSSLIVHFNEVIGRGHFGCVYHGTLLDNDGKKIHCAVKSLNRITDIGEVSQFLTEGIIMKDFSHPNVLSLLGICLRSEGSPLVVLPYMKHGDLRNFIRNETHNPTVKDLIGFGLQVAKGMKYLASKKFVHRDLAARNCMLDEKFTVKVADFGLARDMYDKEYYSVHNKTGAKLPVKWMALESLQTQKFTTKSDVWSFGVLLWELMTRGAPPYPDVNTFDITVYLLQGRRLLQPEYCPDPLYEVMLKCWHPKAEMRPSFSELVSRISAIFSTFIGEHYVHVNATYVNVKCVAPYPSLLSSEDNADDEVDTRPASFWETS

`CC1(C)CCC(c2ccc(Cl)cc2)=C(CN2CCN(c3ccc(C(=O)NS(=O)(=O)c4ccc(N[C@H](CCN5CCOCC5)CSc5ccccc5)c(S(=O)(=O)C(F)(F)F)c4)cc3)CC2)C1` [ABT-263, 4-[4-[[2-(4-Chlorophenyl)-5,5-dimethyl-1-cyclohexen-1-yl]methyl]-1-piperazinyl]-N-[[4-[[(1R)-3-(4-morpholinyl)-1-[(phenylthio)methyl]propyl]amino]-3-[(trifluoromethyl)sulfonyl]phenyl]sulfonyl]benzamide] was tested, and the “growth inhibitory effect (cell viability)” value [1] was “increased compared to the case that the L3-1Y/IgG2 antibody was treated alone”, the “cancer cell growth inhibitory effect (cell viability)” value ([2]; ABT-263 2.5 uM co-treated with L3-1Y/IgG2 (1/5 dilutions from 2 ug/ml)) was “can be achieved” and the “cancer cell growth inhibitory effect (cell viability)” value [3] was “can be achieved”.

With `NC1(c2ccc(-c3nc4ccn5c(=O)[nH]nc5c4cc3-c3ccccc3)cc2)CCC1` [MK-2206, 8-(4-(1-aminocyclobutyl)phenyl)-9-phenyl-[1,2,4]triazolo[3,4-f][1,6]naphthyridin-3(2H)-one, reference compound] the “cancer cell growth inhibitory efficacy (cell viability)” value ([4]; MK-2206 10 uM co-treated with L3-1Y/IgG2 (1/5 dilutions from 2 ug/ml)) was “exhibited” and the “growth inhibitory effect (cell viability)” value ([2]; MK-2206 5 uM co-treated with L3-1Y/IgG2 (1/5 dilutions from 2 ug/ml)) was “exhibited”.

For `CC(C)[C@H]1C(=O)N[C@@H](CCCNC(=N)N)C(=O)NCC(=O)N[C@@H](CC(=O)O)C(=O)N[C@H](Cc2ccccc2)C(=O)N1C` [cilengitide, Cyclo(L-arginylglycyl-L-α-aspartyl-D-phenylalanyl-N-methyl-L-valyl), reference compound], the “growth inhibitory effect (cell viability)” value [4, 5] was “exhibited” and the “growth inhibitory effect (cell viability)” value [2, 5] was “exhibited”.

B1: scFv of huAbF46: scFv of huAbF46, VH-linker-VL, encoded by SEQ ID NO: 55 (protein)
scFv: EVQLVESGGGLVQPGGSLRLSCAASGFTFTDYYMSWVRQAPGKGLEWLGFIRNKANGYTTEYSASVKGRFTISRDNSKNTLYLQMNSLRAEDTAVYYCARDNWFAYWGQGTLVTVSSGLGGLGGGGSGGGGSGGSSGVGSDIQMTQSPSSLSASVGDRVTITCKSSQSLLASGNQNNYLAWHQQKPGKAPKMLIIWASTRVSGVPSRFSGSGSGTDFTLTISSLQPEDFATYYCQQSYSAPLTFGQGTKVEIKR
With B1 the “specificity to c-Met” value (c-Met) was “specificity to c-Met”.

Source: patent publication US9567641B2, “Combination therapy for the treatment of cancer using an anti-C-met antibody” (SAMSUNG ELECTRONICS CO., LTD., priority 2013, dated 2017)
